Experimental data published in PMC13144739, “Global analysis of cancer cell responses to USP9X inhibition” (The EMBO Journal, 2026).
Entries after “also recorded” stand apart in the source; their conditions may differ.

Assays:
SK-MEL-2 cells = assay: Lattice light sheet imaging of mitosis, SK-MEL-2; format: cell-based, human; settings: 15 µM, imaged 24-48 h
Procedure: (§1) MDA-MB-231, MiaPaca2, HMEC-1, SK-MEL-2 and UO-31 cells were seeded at 2–15 × 10^4 cells/mL in 8-well glass µ-slides (ibidi). […] SPY650-Tubulin, SPY555-DNA (both Spirochrome, Inc.), and Annexin V FITC (Sigma-Aldrich) were added at a final concentration of 1 in 1000. Cells were left to grow for 24 h before time-lapse live-cell data were acquired using a Lattice Light Sheet 7 (Zeiss). […] Aberration correction was set to a value of 170 to minimise aberrations as determined by imaging the Point Spread Function using 100 nm fluorescent microspheres. Data were collected with a frame time of 10 ms and a z step of 0.4 μm with 834 frames per 290 μm by 290 μm. Individual regions were imaged in parallel across six wells of the eight-well chamber slide. Data are presented as Maximum Intensity Projections (MIPs), and these MIPs were used for all downstream analysis. Tile regions were imaged for 24 h with 10 min intervals at 37 °C, 5% CO2. Analysis was performed using the MIPs of the different full fields of cells over the 24–48 h time period. Mitosis and mitosis arrest were classified through a combination of automated image analysis and manual validation. […] Small erroneous detected spots were further removed through a manually adjusted size filter. […] The mean intensity of all tracks was then measured to determine mitosis and mitosis arrest. […]

USP9X catalytic domain = target: T1, USP9X catalytic domain (Homo sapiens, UniProt Q93008); assay: Ub-PA suicide probe competition assay; format: biochemical; settings: 50 µM compound, WT catalytic domain
T1 construct: His/SUMO (pOPIN-S vector) (N, cleaved yes); made in house; host or cells: E. coli BL21
T1 sequence (Q93008 1551-1970): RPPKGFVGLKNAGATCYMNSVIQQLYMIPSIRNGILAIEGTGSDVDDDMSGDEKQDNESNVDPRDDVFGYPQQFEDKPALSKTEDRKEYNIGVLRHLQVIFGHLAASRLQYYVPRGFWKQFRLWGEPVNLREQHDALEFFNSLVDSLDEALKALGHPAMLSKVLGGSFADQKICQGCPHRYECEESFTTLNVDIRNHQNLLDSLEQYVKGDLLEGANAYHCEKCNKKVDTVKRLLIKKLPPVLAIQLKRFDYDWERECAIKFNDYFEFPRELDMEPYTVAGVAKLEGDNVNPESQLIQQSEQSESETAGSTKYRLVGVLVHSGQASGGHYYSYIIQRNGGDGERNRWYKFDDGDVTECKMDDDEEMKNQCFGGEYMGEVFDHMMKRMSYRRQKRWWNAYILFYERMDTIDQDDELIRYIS
Procedure: For inhibitor activity assays, USP9X catalytic domain (di-ubiquitin cleavage assay: 750 nM, ubiquitin-probe assays: 2.5 µM) was pre-incubated with USP9X inhibitors for 30 min at ambient temperature and subsequently mixed with di-ubiquitin (final concentration 2 µM) in assay buffer (25 mM Tris [pH 8.0], 150 mM NaCl, 10 mM DTT) at pH 8.0 or was mixed with ubiquitin-propargylamide (Ub-PA)/ubiquitin-vinyl sulfonate (Ub-VS) probes at a final concentration of 10 µM in assay buffer. For both assays, the mixture was incubated over a time course, and the reaction was stopped by mixing samples with 2× LDS sample buffer (Invitrogen) supplemented with 3% (v/v) 2-mercaptoethanol. All protein samples were run on a 4–12% Bis-Tris SDS-PAGE gradient gel (Invitrogen) for 60 min at 140 V. The gel was stained with InstantBlue® (Abcam) and imaged.

MiaPaca2 cells = assay: Lattice light sheet imaging of mitosis, MiaPaca2; format: cell-based, human; settings: 15 µM
Procedure: as §1

USP9X/USP24 chimera = target: T2, USP9X/USP24 chimera (Homo sapiens, UniProt Q93008, A1766S/D1761E/K1759R/L1762V/Y1757F); assay: Ub-Rho cleavage assay, USP9X/USP24 chimera; format: biochemical
T2 construct: His/SUMO (pOPIN-S vector) (N, cleaved yes); made in house; host or cells: E. coli BL21
T2 sequence (Q93008 1551-1970 Y1757F/K1759R/D1761E/L1762V/A1766S): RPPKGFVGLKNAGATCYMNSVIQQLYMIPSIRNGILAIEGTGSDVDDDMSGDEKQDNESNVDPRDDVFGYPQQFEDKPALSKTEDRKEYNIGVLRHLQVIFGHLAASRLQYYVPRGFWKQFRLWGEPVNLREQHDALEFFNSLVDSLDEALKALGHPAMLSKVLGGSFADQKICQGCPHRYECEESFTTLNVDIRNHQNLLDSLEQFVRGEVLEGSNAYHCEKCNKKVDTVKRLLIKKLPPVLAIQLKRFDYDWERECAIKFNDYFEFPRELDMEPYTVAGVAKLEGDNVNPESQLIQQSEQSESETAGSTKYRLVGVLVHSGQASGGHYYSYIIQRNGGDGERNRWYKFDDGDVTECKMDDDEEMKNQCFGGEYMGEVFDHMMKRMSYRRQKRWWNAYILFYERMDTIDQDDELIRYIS
Description: An expression construct for the USP9X catalytic domain (aa 1551–1970, […]: Q93008-1), was codon optimised for bacterial expression, synthesised in gBlock format (Integrated DNA Technologies) and cloned into the pOPIN-S vector (Berrow et al, [2007]), which was digested with KpnI and HindIII using In-Fusion™ HD cloning (Takara Clontech). […] For the USP9X Δβ catalytic domain a deletion construct ΔE1924-K1943 and for USP9X/USP24 chimera, a construct with USP9X Y1757-A1766 replaced with the USP24 (NCBI Reference Sequence: NP_056121) aa motif […] was used. All constructs were confirmed by Sanger sequencing (AGRF).
The reaction was stopped through the addition of 10 mM citric acid. The assay was performed in 384-well format with a total reaction volume of 16 µL. Data was collected using the ClarioSTAR plate reader (BMG Labtech) at an emission of 535 nm. […] IC50 values presented in our study are the mean of three independent biological repeats unless indicated otherwise.

[1] = Caco-2 cell permeability assessment; format: in vitro ADME; settings: human, 10 µM donor
Procedure: The apparent permeability coefficient was assessed using Caco-2 cell monolayers as described previously (Katneni et al, [2018]). […] Compound flux was assessed over a period of up to 120 min, with samples taken from the acceptor chamber at multiple time points. Samples from the donor chamber were taken at the beginning and at the end of the experiment. The mass balance at the end of the permeability experiment was calculated according to the following equation, where compound mass was calculated as the product of molar concentration and volume of donor or acceptor solution: Mass balance%=Massfinal donor+Massfinal acceptor/Massinitial donorx100
The apparent permeability coefficient (Papp) was determined based on the rate of compound appearance in acceptor buffer at steady state using the following equation: Papp(cm/s)=dQ/dtx1/cinitial donorx A dQ/dt : apparent steady-state transport rate (µmol/s)
A: surface area of Caco-2 monolayer (0.3 cm^2 in the test system used)
cinitial donor : concentration in the donor at the start of experiment (µmol/cm^3).

Compound: Cc1[nH]c2ccc(C(=O)N3CCN(S(=O)(=O)c4ccc5c(c4)OCCO5)CC3)cc2c1C [WEHI-092]
- cell division phenotype, SK-MEL-2 (SK-MEL-2 cells): significant defects in cell division
- modification of USP9X with Ub-PA probe (USP9X catalytic domain): prevented the modification of USP9X with ubiquitin propargylamide; also recorded: unable to be modified by the probe
- apoptosis on metaphase arrest (Annexin V uptake), MiaPaca2 (MiaPaca2 cells): did not trigger apoptosis
- cell division phenotype, MiaPaca2 (MiaPaca2 cells; imaged 24-48 h): significant defects in cell division
- activity of USP9X/USP24 chimera in presence of compound (USP9X/USP24 chimera): remained fully active at concentrations up to 10 µM; also recorded: no longer inhibited
- Papp A→B at 10 µM ([1]; Caco-2, apical-to-basolateral): 42.6 ×10⁻⁶ cm/s
- Papp B→A at 10 µM ([1]; Caco-2, basolateral-to-apical): 70.4 ×10⁻⁶ cm/s
